pIC50: −log10 of the molar value. Read-outs that look alike come from different tables or passages of the source.
Target: CDK7/CycH/MNAT1 (Homo sapiens (Human), UniProt P50613)
Assay: Biochemical assay for CDK7 (TR-FRET kinase assay)
Conditions: for inhibition at 10 µM: read-out: % inhibition @ 10 μM
Procedure: The ability of compounds to inhibit CDK7 kinase activity was tested in a TR-FRET assay using 5 nM of CDK7/CycH/MNAT1 obtained from Invitrogen, USA. Test compounds were pre-incubated with the kinase at room temperature for 60 min. After incubation, substrate mix [100 nM Ultra-light MBP (Perkin Elmer, USA) and 1 mM ATP (Sigma)] was added. The above reaction was stopped by the addition of 40 mM EDTA after 60 minutes of kinase reaction. 1 nM Eu-labelled antiphospho-MBP antibody [Perkin Elmer, USA] was added, mixed well and the fluorescence emission at 615 nm and 665 nm [excitation at 340 nm] was measured. The final DMSO concentration in the assay was 1%. For IC50 determination, appropriate concentrations were made by ⅓^rd serial dilutions of 10 mM DMSO stock solution of test compound. All the fluorescence measurements were made in a Victor 3 Multilabel Counter [Perkin Elmer, USA]. The IC50 was determined by fitting the dose response data to sigmoidal curve fitting equation using GraphPad Prism software V5. To identify compounds that inhibit CDK7 irreversibly, time depended inhibition studies were carried by pre-incubating compound with the enzyme at three time points (20, 60 and 180 min) and carrying out assay as described above.

[1] = 10 μM compound, 60 min pre-incubation, 1 mM ATP
[2] = 60 min pre-incubation, 1 mM ATP, read-out: IC50

Chain of CDK7/CycH/MNAT1 (P50613 whole entry): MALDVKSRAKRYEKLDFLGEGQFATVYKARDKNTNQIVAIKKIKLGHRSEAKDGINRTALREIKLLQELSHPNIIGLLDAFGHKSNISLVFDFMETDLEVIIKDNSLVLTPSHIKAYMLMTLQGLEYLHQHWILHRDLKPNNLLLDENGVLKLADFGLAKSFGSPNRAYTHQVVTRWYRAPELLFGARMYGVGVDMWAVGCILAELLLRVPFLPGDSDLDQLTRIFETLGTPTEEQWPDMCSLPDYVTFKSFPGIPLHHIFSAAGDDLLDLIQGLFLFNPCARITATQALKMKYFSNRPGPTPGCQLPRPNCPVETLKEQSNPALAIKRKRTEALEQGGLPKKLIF
Chain of CDK7/CycH/MNAT1 (P51946 whole entry partner): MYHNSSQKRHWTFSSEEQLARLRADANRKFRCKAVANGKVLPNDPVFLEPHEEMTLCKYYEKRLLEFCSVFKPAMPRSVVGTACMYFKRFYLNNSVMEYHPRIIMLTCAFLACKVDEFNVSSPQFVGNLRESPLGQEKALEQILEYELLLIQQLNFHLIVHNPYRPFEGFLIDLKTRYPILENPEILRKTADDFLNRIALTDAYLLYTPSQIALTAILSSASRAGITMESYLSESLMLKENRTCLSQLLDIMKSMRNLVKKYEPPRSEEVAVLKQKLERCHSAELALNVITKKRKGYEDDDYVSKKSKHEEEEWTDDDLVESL
Chain of CDK7/CycH/MNAT1 (P51948 whole entry partner): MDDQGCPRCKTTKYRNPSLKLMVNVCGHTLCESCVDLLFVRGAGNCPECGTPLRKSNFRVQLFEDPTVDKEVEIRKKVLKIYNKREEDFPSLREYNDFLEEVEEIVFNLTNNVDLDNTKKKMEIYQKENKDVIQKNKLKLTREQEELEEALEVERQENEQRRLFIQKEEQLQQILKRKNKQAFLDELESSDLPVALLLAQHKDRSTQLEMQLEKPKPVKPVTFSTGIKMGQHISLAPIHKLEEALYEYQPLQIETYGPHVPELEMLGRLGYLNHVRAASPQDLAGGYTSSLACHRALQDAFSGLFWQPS

Row | SMILES | inhibition at 10 µM [1] [%] | pIC50 [2] | pIC50 (IC50, 60 min pre-incubation, 1 mM ATP) | inhibition at 10 µM [%]
1 | CC(C)c1cnn2c(NCc3cccc(NC(=O)/C=C/CN4CCC(F)C4)c3)nc(NC3CCOCC3)nc12 (stereo not drawn) [Compound 56, (E)-4-(3-fluoropyrrolidin-1-yl)-N-(3-(((8-isopropyl-2-((tetrahydro-2H-pyran-4-yl)amino)pyrazolo[1,5-a][1,3,5]triazin-4-yl)amino)methyl)phenyl)but-2-enamide] | 97 | > 6.52 | – | –
2 | CC(C)c1cnn2c(NCc3cccc(NC(=O)/C=C/CN4CCC(F)(F)C4)c3)nc(NC3CCOCC3)nc12 [Compound 57, (E)-4-(3,3-difluoropyrrolidin-1-yl)-N-(3-(((8-isopropyl-2-((tetrahydro-2H-pyran-4-yl)amino)pyrazolo[1,5-a][1,3,5]triazin-4-yl)amino)methyl)phenyl)but-2-enamide] | 84 | < 6.00 | – | –
3 | CC(C)c1cnn2c(NCc3cccc(NC(=O)/C=C/CN4CCCC(F)C4)c3)nc(NC3CCOCC3)nc12 (stereo not drawn) [Compound 58, (E)-4-(3-fluoropiperidin-1-yl)-N-(3-(((8-isopropyl-2-((tetrahydro-2H-pyran-4-yl)amino)pyrazolo[1,5-a][1,3,5]triazin-4-yl)amino)methyl)phenyl)but-2-enamide] | 96 | 6.00 to 6.52 | – | –
4 | CC(C)c1cnn2c(NCc3cc(F)cc(NC(=O)/C=C/CN(C)C)c3)nc(NC3CCOCC3)nc12 [Compound 59, (E)-4-(dimethylamino)-N-(3-fluoro-5-(((8-isopropyl-2-((tetrahydro-2H-pyran-4-yl)amino)pyrazolo[1,5-a][1,3,5]triazin-4-yl)amino)methyl)phenyl)but-2-enamide] | 98 | > 6.52 | – | –
5 | CC(C)c1cnn2c(NCc3cccc(NC(=O)/C=C/CN(C)C)c3F)nc(NC3CCOCC3)nc12 [Compound 60, (E)-4-(dimethylamino)-N-(2-fluoro-3-(((8-isopropyl-2-((tetrahydro-2H-pyran-4-yl)amino)pyrazolo[1,5-a][1,3,5]triazin-4-yl)amino)methyl)phenyl)but-2-enamide] | 98 | > 6.52 | – | –
6 | CC(C)c1cnn2c(NCc3cc(F)cc(NC(=O)/C=C/CN4CCOCC4)c3)nc(NC3CCOCC3)nc12 [Compound 61, (E)-N-(3-fluoro-5-(((8-isopropyl-2-((tetrahydro-2H-pyran-4-yl)amino)pyrazolo[1,5-a][1,3,5]triazin-4-yl)amino)methyl)phenyl)-4-morpholinobut-2-enamide] | 76 | < 6.00 | – | –
7 | CC(C)c1cnn2c(NCc3ccccc3NC(=O)/C=C/CN(C)C)nc(NC3CCOCC3)nc12 [Compound 62, (E)-4-(dimethylamino)-N-(2-(((8-isopropyl-2-((tetrahydro-2H-pyran-4-yl)amino)pyrazolo[1,5-a][1,3,5]triazin-4-yl)amino)methyl)phenyl)but-2-enamide] | 97 | > 6.52 | – | –
8 | CC(C)c1cnn2c(NCc3ccc(NC(=O)/C=C/CN4CCCC4)cc3)nc(NC3CCOCC3)nc12 [Compound 63, (E)-N-(4-(((8-isopropyl-2-((tetrahydro-2H-pyran-4-yl)amino)pyrazolo[1,5-a][1,3,5]triazin-4-yl)amino)methyl)phenyl)-4-(pyrrolidin-1-yl)but-2-enamide] | 94 | 6.00 to 6.52 | – | –
9 | CC(C)c1cnn2c(NCc3ccc(F)c(NC(=O)C4CCN(C(=O)/C=C/CN(C)C)C4)c3)nc(NC3CCOCC3)nc12 (stereo not drawn) [Compound 64, (E)-1-(4-(dimethylamino)but-2-enoyl)-N-(2-fluoro-5-(((8-isopropyl-2-((tetrahydro-2H-pyran-4-yl)amino)pyrazolo[1,5-a][1,3,5]triazin-4-yl)amino)methyl)phenyl) pyrrolidine-3-carboxamide] | 91 | 6.00 to 6.52 | – | –
10 | CC(C)c1cnn2c(NCc3cccc(OC(=O)N4CCN(C(=O)/C=C/CN(C)C)CC4)c3)nc(NC3CCOCC3)nc12 [Compound 75, 3-(((8-isopropyl-2-((tetrahydro-2H-pyran-4-yl)amino)pyrazolo[1,5-a][1,3,5]triazin-4-yl)amino)methyl)phenyl(E)-4-(4-(dimethylamino)but-2-enoyl)piperazine-1-carboxylate] | – | – | > 6.52 | 97

Now from value to molecule, other results behind:

Row | inhibition at 10 µM [1] [%] | pIC50 [2] | SMILES | pIC50 (IC50, 60 min pre-incubation, 1 mM ATP) | inhibition at 10 µM [%]
11 | 86 | < 6.00 | C/C=C/C(=O)N1CCC1C(=O)Nc1cccc(CNc2nc(NC3CCOCC3)nc3c(C(C)C)cnn23)c1 (stereo not drawn) [Compound 65, (E)-1-(but-2-enoyl)-N-(3-(((8-isopropyl-2-((tetrahydro-2H-pyran-4-yl)amino)pyrazolo[1,5-a][1,3,5]triazin-4-yl)amino)methyl)phenyl)azetidine-2-carboxamide] | – | –
12 | 98 | > 6.52 | C#CC(=O)N1CCC1C(=O)Nc1cccc(CNc2nc(NC3CCOCC3)nc3c(C(C)C)cnn23)c1 (stereo not drawn) [Compound 66, N-(3-(((8-isopropyl-2-((tetrahydro-2H-pyran-4-yl)amino)pyrazolo[1,5-a][1,3,5]triazin-4-yl)amino)methyl)phenyl)-1-propioloylazetidine-2-carboxamide] | – | –
13 | 91 | 6.00 to 6.52 | C=C(C)C(=O)N1CCC1C(=O)Nc1cccc(CNc2nc(NC3CCOCC3)nc3c(C(C)C)cnn23)c1 (stereo not drawn) [Compound 67, N-(3-(((8-isopropyl-2-((tetrahydro-2H-pyran-4-yl)amino)pyrazolo[1,5-a][1,3,5]triazin-4-yl)amino)methyl)phenyl)-1-methacryloylazetidine-2-carboxamide] | – | –
14 | 92 | 6.00 to 6.52 | COC/C=C/C(=O)N1CCC(C(=O)Nc2cccc(CNc3nc(NC4CCOCC4)nc4c(C(C)C)cnn34)c2)C1 (stereo not drawn) [Compound 68, (E)-N-(3-(((8-isopropyl-2-((tetrahydro-2H-pyran-4-yl)amino)pyrazolo[1,5-a][1,3,5]triazin-4-yl)amino)methyl)phenyl)-1-(4-methoxybut-2-enoyl)pyrrolidine-3-carboxamide] | – | –
15 | 85 | 6.00 to 6.52 | CC(C)c1cnn2c(NCc3cc(NC(=O)C4CCN(C(=O)/C=C/CN(C)C)C4)ccc3F)nc(NC3CCOCC3)nc12 (stereo not drawn) [Compound 70, (E)-1-(4-(dimethylamino)but-2-enoyl)-N-(4-fluoro-3-(((8-isopropyl-2-((tetrahydro-2H-pyran-4-yl)amino)pyrazolo[1,5-a][1,3,5]triazin-4-yl)amino)methyl)phenyl)pyrrolidine-3-carboxamide] | – | –
16 | 92 | 6.00 to 6.52 | CC(C)c1cnn2c(NCc3cc(F)cc(NC(=O)C4CCN(C(=O)/C=C/CN(C)C)C4)c3)nc(NC3CCOCC3)nc12 (stereo not drawn) [Compound 71, (E)-1-(4-(dimethylamino)but-2-enoyl)-N-(3-fluoro-5-(((8-isopropyl-2-((tetrahydro-2H-pyran-4-yl)amino)pyrazolo[1,5-a][1,3,5]triazin-4-yl)amino)methyl)phenyl)pyrrolidine-3-carboxamide] | – | –
17 | 84 | 6.00 to 6.52 | CC(C)c1cnn2c(NC(C)c3cccc(NC(=O)C4CCCN(C(=O)/C=C/CN(C)C)C4)c3)nc(NC3CCOCC3)nc12 (stereo not drawn) [Compound 72, (E)-1-(4-(dimethylamino)but-2-enoyl)-N-(3-(1-((8-isopropyl-2-((tetrahydro-2H-pyran-4-yl)amino)pyrazolo[1,5-a][1,3,5]triazin-4-yl)amino)ethyl)phenyl)piperidine-3-carboxamide] | – | –
18 | 101 | > 6.52 | CC(C)c1cnn2c(NCc3cccc(NC(=O)C4COCCN4C(=O)/C=C/CN(C)C)c3)nc(NC3CCOCC3)nc12 (stereo not drawn) [Compound 73, (E)-4-(4-(dimethylamino)but-2-enoyl)-N-(3-(((8-isopropyl-2-((tetrahydro-2H-pyran-4-yl)amino)pyrazolo[1,5-a][1,3,5]triazin-4-yl)amino)methyl)phenyl)morpholine-3-carboxamide] | – | –
19 | 99 | > 6.52 | CC(C)c1cnn2c(NCc3cccc(NC(=O)C4CCCCN4C(=O)/C=C/CN(C)C)c3)nc(NC3CCOCC3)nc12 (stereo not drawn) [Compound 74, (E)-1-(4-(dimethylamino)but-2-enoyl)-N-(3-(((8-isopropyl-2-((tetrahydro-2H-pyran-4-yl)amino)pyrazolo[1,5-a][1,3,5]triazin-4-yl)amino)methyl)phenyl)piperidine-2-carboxamide] | – | –
20 | 81 | < 6.00 | CC(C)c1cnn2c(NCc3cccc(NC(=O)C4CCN4C/C=C/C(=O)N(C)C)c3)nc(NC3CCOCC3)nc12 (stereo not drawn) [Compound 76, (E)-1-(4-(dimethylamino)-4-oxobut-2-en-1-yl)-N-(3-(((8-isopropyl-2-((tetrahydro-2H-pyran-4-yl)amino)pyrazolo[1,5-a][1,3,5]triazin-4-yl)amino)methyl)phenyl)azetidine-2-carboxamide] | – | –
21 | 99 | > 6.52 | CC(C)c1cnn2c(NCc3cccc(NC(=O)C4CCCCN4C(=O)/C=C/CN4CCCC4)c3)nc(NC3CCOCC3)nc12 (stereo not drawn) [Compound 77, (E)-N-(3-(((8-isopropyl-2-((tetrahydro-2H-pyran-4-yl)amino)pyrazolo[1,5-a][1,3,5]triazin-4-yl)amino)methyl)phenyl)-1-(4-(pyrrolidin-1-yl)but-2-enoyl)piperidine-2-carboxamide] | – | –

Reference: US11186576B2, “Pyrazolo[1,5-A][1,3,5]triazine and pyrazolo[1,5-A]pyrimidine derivatives as CDK inhibitors” (Aurigene Discovery Technologies Limited, priority 2015, dated 2021)
